According to paper PMC7155171, “Probing the Open Global Health Chemical Diversity Library for Multistage-Active Starting Points for Next-Generation Antimalarials” (ACS Infectious Diseases, 2020):
pIC50: −log10 of the molar value. Where two headings read alike, the source gives them in different places.

Assays:
[1] = test system: P. berghei liver stage (PbLuc); test: P. berghei luciferase liver stage (PbLuc) assay in HepG2-A16-CD81 hepatocytes; format: cell-based, Plasmodium berghei; settings: Plasmodium berghei; for Emax: 12pt dose response, maximum inhibition
[2] = test system: HepG2-A16-CD81 hepatocytes; test: HepG2 cytotoxicity screening (CellTiter-Glo); settings: for pIC50: HepG2-A16-CD81, read-out: HepG2 tox IC50; for HepG2 cytotoxicity 12pt dose response: Maximum inhibition (%): 12pt dose response
[3] = target: recombinant firefly luciferase (Photinus pyralis, UniProt P08659); test: biochemical; settings: read-out: rLuc IC50
[4] = test system: P. falciparum Dd2 (PfLuc) line expressing firefly luciferase, asexual blood stage; test: microbe, parasite or virus in culture; format: cell-based, Plasmodium falciparum; settings: Plasmodium falciparum; for IC50: DD2, read-out: CDD P. falciparum Luciferase ABS 11-pt Reconfirmation Dose Response (48hr): IC50 (μM); for pIC50 / Emax: DD2
P. falciparum Dd2 = test: SYBR green I asexual blood stage proliferation assay (96 h); format: cell-based, Plasmodium falciparum; settings: Plasmodium falciparum, DD2, Sybr Green I, 11-pt dose response, 96hr; for pIC50: read-out: CDD P. falciparum Sybr Green I ABS 11-pt Reconfirmation Dose Response (96hr): IC50; for Emax: read-out: CDD P. falciparum Sybr Green I ABS 11-pt Reconfirmation Dose Response (96hr): Maximum inhibition (%)
[5] = HepG2 cytotoxicity screening (CellTiter-Glo); settings: human, uninfected HepG2-A16-CD81 (EGFP) hepatocytes
[6] = HepG2-A16-CD81, 48 h, 48 h liver stage, HepG2-A16-CD81, read-out: Pbluc (EEF) IC50
[7] = 8-pt dose response, 96hr, read-out: CDD P. falciparum Luciferase ABS 8-pt Reconfirmation Dose Response (96hr): IC50
[8] = 8-pt dose response, 96hr, read-out: CDD P. falciparum Luciferase ABS 8-pt Reconfirmation Dose Response (96hr): Maximum inhibition (%)
[9] = 11-pt dose response, 48hr, read-out: CDD P. falciparum Luciferase ABS 11-pt Reconfirmation Dose Response (48hr): Maximum inhibition (%)
[10] = 11-pt dose response, 96hr, read-out: CDD P. falciparum Luciferase ABS 11-pt Reconfirmation Dose Response (96hr): IC50
[11] = 11-pt dose response, 96hr, read-out: CDD P. falciparum Luciferase ABS 11-pt Reconfirmation Dose Response (96hr): Maximum inhibition (%)
[12] = HepG2-A16-CD81, 12pt dose response, read-out: PbLuc 12pt dose response: IC50

Chain of recombinant firefly luciferase (P08659 whole entry): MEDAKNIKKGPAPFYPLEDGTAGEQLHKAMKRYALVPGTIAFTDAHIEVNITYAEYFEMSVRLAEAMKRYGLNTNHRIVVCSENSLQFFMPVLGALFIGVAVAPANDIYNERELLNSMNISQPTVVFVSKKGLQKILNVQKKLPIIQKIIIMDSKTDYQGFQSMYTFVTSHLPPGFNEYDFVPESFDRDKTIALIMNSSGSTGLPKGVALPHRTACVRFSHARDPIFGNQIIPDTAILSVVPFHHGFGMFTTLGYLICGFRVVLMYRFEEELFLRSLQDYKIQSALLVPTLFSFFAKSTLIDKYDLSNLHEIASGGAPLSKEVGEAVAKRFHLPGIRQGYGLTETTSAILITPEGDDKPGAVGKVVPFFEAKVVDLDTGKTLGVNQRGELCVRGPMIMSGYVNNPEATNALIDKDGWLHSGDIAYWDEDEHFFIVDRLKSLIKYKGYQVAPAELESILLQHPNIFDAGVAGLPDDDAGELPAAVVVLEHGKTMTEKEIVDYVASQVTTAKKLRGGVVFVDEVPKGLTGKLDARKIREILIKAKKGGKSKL

| Compound | pIC50 [1, 6] | pIC50 [2] | pIC50 [3] | pIC50 [1, 12] | Emax ([1]; HepG2-A16-CD81, 48 h) [%] | pIC50 [5] | inhibition at 2 µM [5] [%] | HepG2 cytotoxicity 12pt dose response: Maximum inhibition (%) [2] [%] | also measured |
| --- | --- | --- | --- | --- | --- | --- | --- | --- | --- |
| CCS(=O)(=O)N1CCc2ccc(NC(=O)Nc3cccc(C)c3)cc21 [DDD01025922] | 5.44 | 4.78 | < 4.30 | – | – | – | – | – | – |
| CCS(=O)(=O)N1CCc2ccc(NC(=O)Nc3cccc(F)c3)cc21 [DDD01025926] | 5.03 | 4.75 | < 4.60 | – | – | – | – | – | – |
| Cc1cnc(NC(=O)c2csc(NC3CCCC3)n2)s1 [DDD01026924] | 5.08 | < 4.60 | 4.61 | – | – | – | – | – | – |
| CCCc1cc(=O)[nH]c(-n2nc(C3CC3)cc2N)n1 [DDD01027468] | 5.33 | 4.69 | < 4.60 | – | – | – | – | – | – |
| CC(C)c1cc(=O)[nH]c(-n2nc(C3CC3)cc2N)n1 [DDD01027469] | 5.79 | 4.72 | < 4.60 | – | – | – | – | – | – |
| Cc1cc(C(=O)N2CCN(c3nc4c(C(C)C)cccc4s3)CC2)no1 [DDD01027513] | 6.09 | < 4.60 | < 4.30 | – | – | – | – | – | – |
| Cc1cc(C(=O)N2CCN(c3nc4c(C(C)C)cccc4s3)CC2)on1 [DDD01027654] | 5.40 | < 4.60 | < 4.30 | – | – | – | – | – | – |
| Cc1[nH]/c(=N\C(=O)c2csc(NC3CCCC3)n2)sc1C [DDD01035522] | 6.08 | 4.96 | 4.35 | – | – | – | – | – | – |
| CCS(=O)(=O)N1CCc2ccc(NC(=O)Nc3cccc(SC)c3)cc21 [DDD01035781] | 5.86 | 5.47 | < 4.60 | – | – | – | – | – | – |
| CCOc1ccc(CN2CCCC(c3cc4ncccc4[nH]3)C2)cc1 (centres unmarked) [DDD01057418] | 5.24 | < 4.60 | < 4.60 | – | – | – | – | – | IC50 ([4]; 11-pt dose response, 48hr): 1.07 µM; pIC50 [4, 7]: 6.02; Emax [4, 8]: 95.5%; Emax [4, 9]: 96.8%; pIC50 [4, 10]: 6.06; Emax [4, 11]: 100%; pIC50 (P. falciparum Dd2): 6.03; Emax (P. falciparum Dd2): 95.7% |
| Fc1ccc(CN2CCCC(c3cc4ncccc4[nH]3)C2)cc1 (centres unmarked) [DDD01057419] | 5.07 | < 4.60 | < 4.60 | – | – | – | – | – | – |
| COc1cc(C)c(CN2CCc3nc4ccsc4c(=O)n3CC2)cc1C [DDD01059934] | 5.05 | < 4.60 | < 4.60 | – | – | – | – | – | – |
| O=c1c2sccc2nc2n1CCN(Cc1ccccc1C(F)(F)F)CC2 [DDD01059968] | 5.17 | < 4.60 | < 4.60 | – | – | – | – | – | – |
| Clc1ccc(-c2ccc(C3CNCCO3)nc2)cc1 (centres unmarked) [DDD01060778] | > 9.85 | < 4.60 | 7.22 | – | – | – | – | – | IC50 ([4]; 11-pt dose response, 48hr): 1.38 µM; pIC50 [4, 7]: 6.34; Emax [4, 8]: 93%; Emax [4, 9]: 97.5%; pIC50 [4, 10]: 5.87; Emax [4, 11]: 99.3%; pIC50 (P. falciparum Dd2): < 4.90; Emax (P. falciparum Dd2): 56.1% |
| COc1ccc(-c2ccc(C3CNCCO3)nc2)cc1 (centres unmarked) [DDD01061023] | > 9.85 | < 4.30 | 7.52 | – | – | – | – | – | – |
| CCc1nc(CN2CCCN(c3ncnc4ccccc34)CC2)no1 [DDD01080636] | 6.16 | 5.73 | < 4.30 | – | – | – | – | – | – |

| Compound | pIC50 [1, 6] | pIC50 [2] | pIC50 [3] | pIC50 [1, 12] | Emax ([1]; HepG2-A16-CD81, 48 h) [%] | pIC50 [5] | inhibition at 2 µM [5] [%] | HepG2 cytotoxicity 12pt dose response: Maximum inhibition (%) [2] [%] | also measured |
| --- | --- | --- | --- | --- | --- | --- | --- | --- | --- |
| COc1ccc2cc(C3CN(C(=O)CCNC(C)=O)CCO3)ccc2c1 (centres unmarked) [DDD01248593] | 6.48 | < 4.60 | 5.00 | – | – | – | – | – | – |
| CNC(=O)CCC(=O)N1CCOC(c2ccc3cc(OC)ccc3c2)C1 (centres unmarked) [DDD01251007] | 9.02 | < 4.60 | 4.63 | – | – | – | – | – | – |
| COc1ccc2cc(C3CN(C(=O)N(C)C)CCO3)ccc2c1 (centres unmarked) [DDD01257372] | > 9.85 | < 4.60 | 5.46 | – | – | – | – | – | – |
| COc1cccc(CN2CCC(CO)(Cc3ccc(Cl)cc3)CC2)c1O [UCSD-0828601] | – | – | – | 5.34 | 95 | 4.91 | 2.59 | 82.8 | – |
| C[C@H](c1ccc(F)cc1)n1c(C2CCN(C)CC2)n[nH]c1=O [UCSD-0830237] | – | – | – | 5.48 | 86.3 | < 4.30 | 3.06 | 8.15 | – |
| O=C(O)CSc1nnc(-c2cn[nH]c2)n1-c1ccccc1C(F)(F)F [UCSD-0830442] | – | – | – | 5.26 | – | < 4.30 | 6.23 | 4.76 | – |
| COc1ccc(F)c(CN2CCCC(O)(CNCC(C)(C)C)C2=O)c1 (centres unmarked) [UCSD-0830878] | – | – | – | 4.35 | 86.4 | < 4.30 | 5.34 | -11.6 | – |
| CN1CCCC(CCC(=O)N2CCc3sc(C(=O)N(C)C)cc3C2)C1 (centres unmarked) [UCSD-0833754] | – | – | – | < 4.30 | 38.7 | < 4.30 | -1.19 | 3.22 | – |
| NC(=O)CCn1cc(CNCc2csc(N)n2)c2ccccc21 [UCSD-0835992] | – | – | – | < 4.30 | 17.4 | < 4.30 | 9.68 | 10.2 | – |
| COc1ccccc1C1CCN(c2ccc3cc[nH]c3n2)CC1 [UCSD-0836069] | – | – | – | 5.45 | 93.5 | 4.50 | 5.11 | 60.6 | – |
| Cc1n[nH]c(CN2CCN(c3ncnc4scc(C)c34)CC2)c1Cl [UCSD-0836325] | – | – | – | 5.35 | 96 | < 4.78 | 27.1 | 66.1 | – |
| COc1ccc(OCCN2CCC(N3CCNC3=O)CC2)cc1 [UCSD-0840477] | – | – | – | 4.67 | 62.9 | < 4.30 | 38.5 | 42.1 | – |
| Cc1cccc(NC(=O)c2[nH]nc(C(C)C)c2Br)n1 [UCSD-0842406] | – | – | – | 7.57 | 101 | < 4.30 | 17.4 | 40.5 | – |
| Cc1ncsc1C(=O)NC1CCN(Cc2ccc(C(F)(F)F)cc2)CC1 [UCSD-0842554] | – | – | – | 4.85 | 87.4 | < 4.30 | 9.14 | 41.9 | – |
| CC(=O)Nc1nc(C(=O)N2CCCC(n3cncn3)C2)cs1 (centres unmarked) [UCSD-0843277] | – | – | – | 4.67 | 81.2 | < 4.30 | -7.07 | -5.65 | – |
| CC(C)(C)c1nc(CN2CCCC(Cn3cncn3)C2)cs1 (centres unmarked) [UCSD-0846727] | – | – | – | < 4.30 | 24.9 | < 4.30 | 5.83 | -16.6 | – |
